Measured values as given in patent publication US10053451B2, “Heterocyclic estrogen receptor modulators and uses thereof” (priority 2015, dated 2018).

Biological target: T1, estrogen receptor alpha (ESR1) (Homo sapiens, UniProt P03372)
T1 construct: MCF7 cells were trypsinized and washed twice; endogenous in cells; host or cells: MCF7 breast cancer cells
T1 sequence (P03372 1-595): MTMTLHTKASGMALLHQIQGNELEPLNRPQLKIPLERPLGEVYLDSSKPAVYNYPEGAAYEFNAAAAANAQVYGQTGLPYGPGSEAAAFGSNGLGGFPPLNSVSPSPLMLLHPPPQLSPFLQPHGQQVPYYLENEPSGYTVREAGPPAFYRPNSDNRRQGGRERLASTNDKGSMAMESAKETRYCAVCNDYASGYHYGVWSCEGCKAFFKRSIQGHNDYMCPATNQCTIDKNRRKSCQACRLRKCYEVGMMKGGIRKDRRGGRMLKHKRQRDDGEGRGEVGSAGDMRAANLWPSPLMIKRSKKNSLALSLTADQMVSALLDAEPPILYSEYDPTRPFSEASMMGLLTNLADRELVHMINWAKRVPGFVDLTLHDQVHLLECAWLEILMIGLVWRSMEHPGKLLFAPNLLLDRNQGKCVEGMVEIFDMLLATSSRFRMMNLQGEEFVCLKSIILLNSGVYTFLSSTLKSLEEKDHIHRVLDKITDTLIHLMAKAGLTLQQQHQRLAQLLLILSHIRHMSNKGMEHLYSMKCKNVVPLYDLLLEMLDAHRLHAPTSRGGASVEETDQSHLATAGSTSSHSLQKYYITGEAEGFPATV
Experiment: Breast Cancer Cell ERa High Content Fluorescence Imaging Assay (ER-alpha MCF7 Assay)
Format: cell-based
Settings: MCF7 cells, 4 hours; plateau of maximal effect; DMSO = 0%, 5 nM Fulvestrant = 100% change in ESR1
Protocol: Cell plates were incubated at 37° C., for 4 hours. Fixation and permeabilization were carried out using a Biotek EL406 plate washer and dispenser as follows. […] Samples were incubated 30 minutes. Well contents was aspirated and 50 uL/well of Phosphate Buffered Saline (PBS) containing 0.5% w/v bovine serum albumen, 0.5% v/v Triton X-100 (Antibody Dilution Buffer) was added to each well. Samples were incubated for 30 minutes. Well contents were aspirated and washed 3 times with 100 uL/well of PBS. Immunofluorescence staining of estrogen receptor alpha (ESR1) was carried out using a Biotek EL406 plate washer and dispenser as follows. […] Samples were incubated for 2 hours at room temperature. Samples were washed 4 times with 100 uL/well of PBS. […] Samples were incubated for 2 hours at room temperature. Samples were washed 3 times with 100 uL/well of PBS using a Biotek EL406. Quantitative fluorescence imaging of ESR1 was carried out using a Cellomics Arrayscan V (Thermo). […] Channel 1 (DNA stain) was used to define the nuclear region (Circ). […] The “Robust Fit” method was used to define the inflexion point of curve (EC50) and the plateau of the maximal effect (Sinf).

| SMILES | ER-alpha MCF7 Sinf (%) |
| --- | --- |
| CC1=C(C2=CCOC2)C(c2ccc(OCCN3CC(CF)C3)cc2)Oc2ccc(O)cc21 (stereo not drawn) [Example 30, 3-(2,5-dihydrofuran-3-yl)-2-(4-(2-(3-(fluoromethyl)azetidin-1-yl)ethoxy)phenyl)-4-methyl-2H-chromen-6-ol] | 97.9 |
| CC1=C(CC(C)C)C(c2ccc(OCCN3CC(CF)C3)cc2)Oc2ccc(O)cc21 (stereo not drawn) [Example 17, 2-(4-(2-(3-(Fluoromethyl)azetidin-1-yl)ethoxy)phenyl)-3-isobutyl-4-methyl-2H-chromen-6-ol] | 93.9 |
| CC(C)=CC1=C(C)c2cc(O)ccc2OC1c1ccc(OCCN2CC(CF)C2)cc1 (stereo not drawn) [Example 16, 2-[4-[2-[3-(Fluoromethyl)azetidin-1-yl]ethoxy]phenyl]-4-methyl-3-(2-methylprop-1-enyl)-2H-chromen-6-ol] | 93.9 |
| CC1=C(C2=CC(O)CC2)C(c2ccc(OCCN3CC(CF)C3)cc2)Oc2ccc(O)cc21 (stereo not drawn) [Example 47, 2-[4-[2-[3-(fluoromethyl)azetidin-1-yl]ethoxy]phenyl]-3-(3-hydroxycyclopenten-1-yl)-4-methyl-2H-chromen-6-ol] | 95.4 |
| CC1=C(C2CCOC2)C(c2ccc(OCCN3CC(CF)C3)cc2)Oc2ccc(O)cc21 (stereo not drawn) [Example 29, 2-(4-(2-(3-(fluoromethyl)azetidin-1-yl)ethoxy)phenyl)-4-methyl-3-(tetrahydrofuran-3-yl)-2H-chromen-6-ol] | 98.9 |
| CC1=C(c2cncc(S(C)(=O)=O)c2)C(c2ccc(OCCN3CC(CF)C3)cc2)Oc2ccc(O)cc21 (stereo not drawn) [Example 41, 2-{4-[2-(3-Fluoromethyl-azetidin-1-yl)-ethoxy]-phenyl}-3-(5-methanesulfonyl-pyridin-3-yl)-4-methyl-2H-chromen-6-ol] | 98.9 |
| CC1=C(c2cnc(N)nc2)C(c2ccc(OCCN3CC(CF)C3)cc2)Oc2ccc(O)cc21 (stereo not drawn) [Example 39, 3-(2-Amino-pyrimidin-5-yl)-2-{4-[2-(3-fluoromethyl-azetidin-1-yl)-ethoxy]-phenyl}-4-methyl-2H-chromen-6-ol] | 95.4 |
| CC(=O)N1CCC(C2=C(C)c3cc(O)ccc3OC2c2ccc(OCCN3CC(CF)C3)cc2)C1 (stereo not drawn) [Example 19, 1-(3-(2-(4-(2-(3-(Fluoromethyl)azetidin-1-yl)ethoxy)phenyl)-6-hydroxy-4-methyl-2H-chromen-3-yl)pyrrolidin-1-yl)ethanone] | 80 |
| CC1=C(C2=CCNC2)C(c2ccc(OCCN3CC(CF)C3)cc2)Oc2ccc(O)cc21 (stereo not drawn) [Example 18, 3-(2,5-dihydro-1H-pyrrol-3-yl)-2-(4-(2-(3-(fluoromethyl)azetidin-1-yl)ethoxy)phenyl)-4-methyl-2H-chromen-6-ol] | 90.0 |
| CC1=C(/C=C/CO)C(c2ccc(OCCN3CC(CF)C3)cc2)Oc2ccc(O)cc21 (stereo not drawn) [Example 52, 2-[4-[2-[3-(fluoromethyl)azetidin-1-yl]ethoxy]phenyl]-3-[(E)-3-hydroxyprop-1-enyl]-4-methyl-2H-chromen-6-ol] | 97.3 |
| CC1=C(c2cncc(F)c2)C(c2ccc(OCCN3CC(CF)C3)cc2)Oc2ccc(O)cc21 (stereo not drawn) [Example 43, 2-{4-[2-(3-Fluoromethyl-azetidin-1-yl)-ethoxy]-phenyl}-3-(5-fluoro-pyridin-3-yl)-4-methyl-2H-chromen-6-ol] | 97.3 |
| CC1=C(c2ccncc2C)C(c2ccc(OCCN3CC(CF)C3)cc2)Oc2ccc(O)cc21 (stereo not drawn) [Example 32, 2-{4-[2-(3-Fluoromethyl-azetidin-1-yl)-ethoxy]-phenyl}-4-methyl-3-(3-methyl-pyridin-4-yl)-2H-chromen-6-ol] | 99.4 |
| CC1=C(c2cnccc2C)C(c2ccc(OCCN3CC(CF)C3)cc2)Oc2ccc(O)cc21 (stereo not drawn) [Example 34, 2-{4-[2-(3-Fluoromethyl-azetidin-1-yl)-ethoxy]-phenyl}-4-methyl-3-(4-methyl-pyridin-3-yl)-2H-chromen-6-ol] | 97.5 |
| CC1=C(C2CCOCC2)C(c2ccc(OCCN3CC(CF)C3)cc2)Oc2ccc(O)cc21 (stereo not drawn) [Example 24, 2-(4-(2-(3-(fluoromethyl)azetidin-1-yl)ethoxy)phenyl)-4-methyl-3-(tetrahydro-2H-pyran-4-yl)-2H-chromen-6-ol] | 97.7 |
| CC1=C(c2cccnc2C)C(c2ccc(OCCN3CC(CF)C3)cc2)Oc2ccc(O)cc21 (stereo not drawn) [Example 35, 2-{4-[2-(3-Fluoromethyl-azetidin-1-yl)-ethoxy]-phenyl}-4-methyl-3-(2-methyl-pyridin-3-yl)-2H-chromen-6-ol] | 98.5 |
| CC1=C(C2=CC(=O)CC2)C(c2ccc(OCCN3CC(CF)C3)cc2)Oc2ccc(O)cc21 (stereo not drawn) [Example 45, 3-[2-[4-[2-[3-(fluoromethyl)azetidin-1-yl]ethoxy]phenyl]-6-hydroxy-4-methyl-2H-chromen-3-yl]cyclopent-2-en-1-one] | 96.6 |
| CC1=C(C2CCC(O)C2)C(c2ccc(OCCN3CC(CF)C3)cc2)Oc2ccc(O)cc21 (stereo not drawn) [Example 46, 2-[4-[2-[3-(fluoromethyl)azetidin-1-yl]ethoxy]phenyl]-3-(3-hydroxycyclopentyl)-4-methyl-2H-chromen-6-ol] | 98.3 |
| CC(=O)N1CC=C(C2=C(C)c3cc(O)ccc3OC2c2ccc(OCCN3CC(CF)C3)cc2)C1 (stereo not drawn) [Example 20, 1-(3-(2-(4-(2-(3-(Fluoromethyl)azetidin-1-yl)ethoxy)phenyl)-6-hydroxy-4-methyl-2H-chromen-3-yl)-2,5-dihydro-1H-pyrrol-1-yl)ethanone] | 93.7 |
| CC1=C(c2ncccc2C)C(c2ccc(OCCN3CC(CF)C3)cc2)Oc2ccc(O)cc21 (stereo not drawn) [Example 33, 2-{4-[2-(3-Fluoromethyl-azetidin-1-yl)-ethoxy]-phenyl}-4-methyl-3-(3-methyl-pyridin-2-yl)-2H-chromen-6-ol] | 96.4 |
| CNC(=O)N1CCC(C2=C(C)c3cc(O)ccc3OC2c2ccc(OCCN3CC(CF)C3)cc2)CC1 (stereo not drawn) [Example 31, 4-(2-(4-(2-(3-(fluoromethyl)azetidin-1-yl)ethoxy)phenyl)-6-hydroxy-4-methyl-2H-chromen-3-yl)-N-methylpiperidine-1-carboxamide] | 85.9 |
| CC1=C(c2cnn(C)c2)C(c2ccc(OCCN3CC(CF)C3)cc2)Oc2ccc(O)cc21 (stereo not drawn) [Example 42, 2-{4-[2-(3-Fluoromethyl-azetidin-1-yl)-ethoxy]-phenyl}-4-methyl-3-(1-methyl-1H-pyrazol-4-yl)-2H-chromen-6-ol] | 95.2 |
| CC1=C(c2cccc(O)c2)[C@H](c2cnn(CCCN3CC(CF)C3)c2)Oc2ccc(O)cc21 [Example 51, (R)-2-(1-(3-(3-(fluoromethyl)azetidin-1-yl)propyl)-1H-pyrazol-4-yl)-3-(3-hydroxyphenyl)-4-methyl-2H-chromen-6-ol] | 94.7 |
| CC1=C(c2cncc(C#N)c2)C(c2ccc(OCCN3CC(CF)C3)cc2)Oc2ccc(O)cc21 (stereo not drawn) [Example 44, 5-(2-{4-[2-(3-Fluoromethyl-azetidin-1-yl)-ethoxy]-phenyl}-6-hydroxy-4-methyl-2H-chromen-3-yl)-nicotinonitrile] | 91.8 |
| CC1=C(c2ncc(C#N)cc2C)C(c2ccc(OCCN3CC(CF)C3)cc2)Oc2ccc(O)cc21 (stereo not drawn) [Example 22, 2-{4-[2-(3-Fluoromethyl-azetidin-1-yl)-ethoxy]-phenyl}-4-methyl-3-(3-methyl-5-cyano-pyridin-2-yl)-2H-chromen-6-ol] | 97.4 |
| CC1=C(C2=CCC(F)(F)CC2)C(c2ccc(OCCN3CC(CF)C3)cc2)Oc2ccc(O)cc21 (stereo not drawn) [Example 26, 3-(4,4-difluorocyclohex-1-en-1-yl)-2-(4-(2-(3-(fluoromethyl)azetidin-1-yl)ethoxy)phenyl)-4-methyl-2H-chromen-6-ol] | 97.1 |
| CC1=C(c2cncc(C)c2)C(c2ccc(OCCN3CC(CF)C3)cc2)Oc2ccc(O)cc21 (stereo not drawn) [Example 37, 2-{4-[2-(3-Fluoromethyl-azetidin-1-yl)-ethoxy]-phenyl}-4-methyl-3-(5-methyl-pyridin-3-yl)-2H-chromen-6-ol] | 99.2 |
| CC1=C(C2=CCC(O)CC2)C(c2ccc(OCCN3CC(CF)C3)cc2)Oc2ccc(O)cc21 (stereo not drawn) [Example 21, 2-(4-(2-(3-(Fluoromethyl)azetidin-1-yl)ethoxy)phenyl)-3-(4-hydroxycyclohex-1-en-1-yl)-4-methyl-2H-chromen-6-ol] | 98.7 |
